Experimental data published in publication PMC12721191, “Oxidative hypoxia drives TGF-β1–induced fibrosis under normoxia” (Redox Biology, 2025).
Entries after “also recorded” stand apart in the source; their conditions may differ.

Key:
[1] = Metabolic stability in pooled human liver microsomes; assay type: in vitro ADME; settings: with NADPH, 0–60 min, read-out: half-life (t1/2) in HLMs
Experimental: To initiate the reaction, NADPH generating system was added to the incubation samples and further incubated for specific time points (0, 5, 15, 30, 45, and 60 min). Then, sample aliquots were taken and terminated with cold acetonitrile.

A549 [2] = experiment: MTT cytotoxicity assay; assay type: cell-based, human; settings: two cell lines including A549, up to 7 μM, with or without TGF-β1
Experimental: Cells (8 × 10^3 per well, 96-well) were treated as indicated, incubated with 0.5 mg/mL MTT for 4 h, solubilized in DMSO, and read at 570 nm.
Cells were seeded at 8 × 10³ cells per well in 200 µL of medium in a 96-well plate. The next day, the medium was replaced with medium containing the test compound(s) at the desired concentration(s) and incubated for the specified duration. After the incubation, the medium was discarded and replaced with 0.5 mg/mL Thiazolyl Blue Tetrazolium Bromide in PBS. Following a 4 h incubation at 37 °C, the formazan crystals were dissolved in DMSO, and absorbance was measured at 570 nm using a SUNRISE™ microplate reader. The relative cell viability was calculated based on the optical density values.

colon = experiment: Colonic histopathology in the BLM mouse study; assay type: in vivo, ICR mice; settings: BLM mice; ACF-2 10 mg/kg i.p. every 2 days or NIDB 60 mg/kg/day
Description: Fixed left lung lobes were paraffin-embedded, sectioned (4 μm), and stained with H&E or MT. A blinded pathologist graded pulmonary fibrosis on the 1-8 Ashcroft scale; representative images illustrate typical lesions. Colon samples were processed by the swiss-roll method, stained with H&E, and scored for inflammation and erosion, which were combined into a composite histological score. All animal studies were approved by the Institutional Animal Care and Use Committee of Jeju National University (Approval ID: 2024-0058) and conducted in compliance with institutional guidelines. Male ICR mice (6 weeks old, average body weight 27 g) were purchased from […] (South Korea) and housed under controlled temperature (22 ± 2 °C) and humidity (0.0 ± 15.0 %) on a 12 hr light-dark cycle with free access to food and water. […] Colon tissue: Colons were harvested, flushed with 1xPBS, and prepared using the swiss-roll method before embedding in paraffin. Sections of 4 μm thickness were subjected to H&E staining as described above. Colonic injury was evaluated by two independent parameters: (i) inflammation score (0-3) and (ii) erosion score (0-3). A composite histological score was then calculated as the sum of inflammation and erosion scores for each sample.

HIF-1α–EGFP in A549 = experiment: pg-HIF-1α–EGFP fluorescence in transfected A549; assay type: cell-based, human; settings: A549, co-treatment with TGF-β1
Experimental: pg-HIF-1α–EGFP was introduced via jetOPTIMUS®; GFP fluorescence was quantified 48 h post-transfection.
Transient transfection of A549 cells with pg-HIF-1α–EGFP was performed using jetOPTIMUS® according to the manufacturer’s protocol. Following 48 hr of transfection, the medium was replaced, and cells were treated with TGF-β1 at the specified concentration and duration before further analysis. Cell imaging was performed using an EVOS™ M7000 at 10×, 20×, or 40× magnification. GFP fluorescence intensity was measured using ImageJ. The mean fluorescence within the regions of interest (ROIs) was calculated after background subtraction, and values were normalized to the control condition

A549 [3] = experiment: Intracellular ROS staining (DHR123 microscopy, CM-H2DCFDA flow cytometry); assay type: cell-based, human
Experimental: CellROX™ Deep Red or DHR123 fluorescence microscopy, and CM-H2DCFDA flow cytometry, were used to quantify intracellular ROS.
Dihydrorhodamine (DHR)123: Cells were similarly seeded at 3 × 10⁴ cells per well in 1 mL of medium on Cell Culture Slide I. After the desired treatments and incubation times, the medium was removed, cells were washed with PBS, and 10 µM Dihydrorhodamine 123 in PBS was applied for 30 min at 37 °C. Hoechst 33342 (0.5 µg/mL) was added for the final 10 min. Cells were then washed in PBS and imaged with the EVOS™ M7000 system in the Cy2 channel.
CM-H₂DCFDA: Cells (2 × 10⁵) were plated in 2 mL of medium per well in a 6-well plate. After treatment for the indicated times, the medium was removed, and cells were washed once with PBS. CM-H₂DCFDA (10 µM) in PBS was added for 30 min at 37 °C, followed by a 10 min equilibration in PBS. Cells were then detached with trypsin for 1 min, neutralized with FBS, pelleted by centrifugation, and resuspended in PBS. Fluorescence was measured using a CytoFLEX LX flow cytometer (excitation/emission: 485/520 nm).

A549 [4] = experiment: Western blot of HIF-1α, fibrosis and EMT markers in A549; assay type: cell-based, human
[5] = system: BLM-induced pulmonary fibrosis; experiment: RT-qPCR of lung tissue in BLM-treated mice; assay type: in vivo, ICR mice; settings: BLM 30 mg/kg; ACF-2 10 mg/kg i.p. every 2 days or NIDB 60 mg/kg/day
Experimental: Total RNA (AccuPrep®) was reverse-transcribed and amplified with SYBR Green chemistry on a StepOnePlusTM system; relative expression was calculated by ΔΔCt. Male ICR mice received BLM (30 mg/kg, intratracheal). […] Total RNA was extracted from both cultured cells and mouse lung tissue using the AccuPrep® Universal RNA Extraction Kit. […] RT-qPCR was performed using iTaqTM Universal SYBR® Green Supermix on a StepOnePlusTM Real-Time PCR System. […] All animal studies were approved by the Institutional Animal Care and Use Committee of Jeju National University (Approval ID: 2024-0058) and conducted in compliance with institutional guidelines. Male ICR mice (6 weeks old, average body weight 27 g) were purchased from […] (South Korea) and housed under controlled temperature (22 ± 2 °C) and humidity (0.0 ± 15.0 %) on a 12 hr light-dark cycle with free access to food and water.

half-life at 1 µM [1]: > 1 h
Compound: COc1ccc(-c2c(-c3ccc(O)c(OC)c3)oc3cc(OC)c(OC)cc3c2=O)cc1 [ACF-2]
cytotoxicity (MTT) (A549 [2]): does not induce cellular cytotoxicity; also recorded: did not exhibit cytotoxic effects | composite histological score of colon (inflammation + erosion) (colon): did not induce colonic inflammation or erosion | TGF-β1–induced HIF-1α–EGFP GFP fluorescence intensity (HIF-1α–EGFP in A549): significantly attenuated the TGF-β1–induced increase in GFP fluorescence intensity | TGF-β1-induced ROS (DCFDA flow cytometry) (A549 [3]; A549, ACF-2 7 μM, TGF-β1 6 h): effectively suppressed TGF-β1-induced ROS elevation | TGF-β1-induced ROS (DHR123) (A549 [3]; A549, TGF-β1 6 h, NAC 10 mM as comparator): reduced TGF-β1-induced ROS accumulation even more effectively than NAC | BLM-induced HIF-1α levels (Western blot) (A549 [4]; A549, BLM 15 μM, 10 h): effectively suppressed | fibronectin, α-SMA, N-cadherin (Western blot) (A549 [4]; A549, TGF-β1 24 h, ACF-2 7 μM): coordinated suppression of fibrosis markers (fibronectin, α-SMA) and EMT marker (N-cadherin) | COL3A1 and COL4A6 (Western blot) (A549 [4]; A549, TGF-β1 24 h, ACF-2 co-treatment): dose-dependent reduction of fibrosis markers COL3A1 and COL4A6 | TGF-β1 (Tgfb1) expression in lung (RT-qPCR) [5]: markedly reduced
